Fold change and EC50 data for 13 compounds are collected here from patent EP1285971B1, “Methods for the phenotypic and genotypic assessment of the drug sensitivity of HIV integrase variants” (Tibotec Pharmaceuticals Ltd., priority 2001, dated 2003).

The assay relates to patient_146514. The assay can be described thus: microbe, parasite or virus in culture. The note with it: for fold change: fold change in EC50. It counts as cell-based, HIV. On the procedure: The integrase encoding sequence was amplified from either wildtype HIV-1 (IIIB) or NL4.3 virus, or HXB2D site-directed mutant viruses containing mutations in integrase (such as T66I, S153Y, M154I, or combinations thereof) (Hazuda et al., Science 2000, 287, 646-650), or patient samples. Starting from RNA, extracted from virus supernatant or plasma using the QIAamp® viral RNA extraction kit (Qiagen), cDNA was synthesized by reverse transcription (Expand TM reverse transcriptase, 30 min at 42°C) with the primer 3'EGINT10 (SEQ ID NO 11), followed by a nested PCR. The outer PCR was performed with the primers 5'EGINT1 (SEQ ID NO 1) and 3'EGINT10 (SEQ ID NO 11) (ΔR-IN-vif construct) or 5'EGINT3 (SEQ ID NO 4) and 3'EGINT10 (SEQ ID NO 11) (ΔIN construct) (Expand™ High Fidelity PCR system), and 5 µl of the outer product was used for an inner PCR with primers 5'EGINT2 (SEQ ID NO 3) and 3'EGINT11 (SEQ ID NO 12) (ΔR-IN-vif construct) or 5'EGINT4 (SEQ ID NO 5) and 3'EGINT6 (SEQ ID NO 7) (ΔIN construct). In a second protocol the outer primers were identical as described above, the inner primers are 5'EGINT5 (SEQ ID NO 6) and 3'EGINT6 (SEQ ID NO 7). The amplicons can be used for genotyping and phenotyping. Cycling conditions for both PCRs are denaturation for 3 min at 95°C, followed by 30 cycles of 1 min 90°C, 30 sec 55°C, and 2 min 72°C. A final extension was performed at 72°C for 10 min. For recombination, PCR products are purified using the QiaQuick® 96 PCR BioRobot kit (Qiagen), according to the manufacturer's protocol. If the protocol starts from DNA containing the HIV material such as proviral DNA, the reverse transcriptase step is not needed. The nested approach is also not needed when starting from proviral DNA. The obtained amplicons were sequenced using the primers: In_seq1F (SEQ ID NO 17), In_seq2F (SEQ ID NO 18), In_seq3F (SEQ ID NO 19), IN_seq1R (SEQ ID NO 20), IN_seq2R (SEQ ID NO 21), and IN_seq3R (SEQ ID NO 22).
A ΔR-IN-vif or ΔIN deletion construct was generated by site-directed mutagenesis on the template pSV40HXB2D with the primers MUT-IN1 (SEQ ID NO 13) and MUT-IN2 (ΔR-IN-vif construct) (SEQ ID NO 14) or MUT-IN3 (SEQ ID NO 15) and MUT-IN4 (SEQ ID NO 16) (ΔIN construct) (protocol Site-directed mutagenesis kit, Stratagene). After DpnI digestion for removal of the methylated template DNA, the construct was digested with SmaI and ligated to circulize the plasmid. The plasmid was transformed into competent cells such as Top10 cells, and colonies were screened for the presence of the deletion construct. The IN-deletion construct was checked by sequence analysis with primers 5'EGINT1 (SEQ ID NO 1) or […] and 3'EGINT10 (SEQ ID NO 11) or 3'EGINT11 (SEQ ID NO 12). For use in recombination experiments, large-scale plasmid DNA preparations were linearized by SmaI digestion and recombined with PCR amplified integrase genes from wild type, mutant, or patient viruses. The plasmid containing the integrase deletion (ΔIN) has been deposited pSV40HXB2D-ΔIN. The sequence of said plasmid is 14377 nucleotides long. The ΔR-IN-vif deletion construct is 13975 nucleotides long. The pSV40HXB2D-ΔIN was deposited at the Belgian Coordinated Collections of Micro-Organisms located at the Universiteit Gent - Laboratorium voor Moleculaire Biologie on August 5, 2002 and the accession number is LMBP 4574.
Recombinant virus was produced by co-transfection by electroporation of the SmaI-linearized IN-deletion construct and the integrase amplicon into MT4 cells or MT4 cells equipped with an LTR driven reporter gene construct. Production of recombinant virus was evaluated by scoring the cytopathogenic effect (CPE) that is induced by HIV-infection of MT4 cells or by the LTR-driven reporter signal induced by HIV infection in MT4 reporter cells.

Setting [1] is: AVE 2, patient_146514, primer set 3.
The mark [2] stands for this setting: Human immunodeficiency virus 1, AVE 2, patient_146514, primer set 3.

Like-named read-outs stand apart in the source and are kept apart here.

`c1cc(CN2CCCNCCNCCCNCC2)ccc1CN1CCCNCCNCCCNCC1` [AMD3100]: under setting [1], the fold change is 1,0. Under setting [2], the EC50 turned out to be 54.9 nM.
As to `CC(C)CN(C[C@@H](O)[C@H](Cc1ccccc1)NC(=O)O[C@H]1CCOC1)S(=O)(=O)c1ccc(N)cc1` [APV, Amprenavir], under setting [1], the fold change is 1,4. Further, the EC50 under setting [2] is 117 nM.
On to `O=C(O)C1=CC(=C(c2ccc(O)c(C(=O)O)c2)c2ccc(O)c(C(=O)O)c2)C=CC1=O` [ATA], for which the fold change under setting [1] is 1,0. For the setting “AVE 2, patient_146514, primer set 3, read-out: EC 50”, the EC50 turned out to be 1970 nM.
Regarding `Cc1cn([C@H]2C[C@H](N=[N+]=[N-])[C@@H](CO)O2)c(=O)[nH]c1=O` [AZT, Zidovudine], under setting [1], the fold change was 0,9. Besides, the EC50 under setting [2] amounted to 150 nM.
As to `Cc1cc(C#N)cc(C)c1Oc1nc(Nc2ccc(C#N)cc2)nc(N)c1Br` [Compound 1, 4-[[6-amino-5-bromo-2-[(4-cyanophenyl)amino]-4-pyrimidinyl]oxy]-3,5-dimethyl-benzonitrile], under setting [1], the EC50 turned out to be 1.7 nM and the fold change is given as 1,7.
Consider `Cc1cc(C#N)cc(C)c1Oc1nc(Nc2ccc(C#N)cc2)nc(N)c1Br` [Compound 2, 4-[[6-amino-5-bromo-2-[(4-cyanophenyl)amino]-4-pyrimidinyl]oxy]-3,5-dimethyl-Benzonitrile], for which, under setting [1], the EC50 came to 3.9 nM and the fold change is 1,3.
Consider `Nc1ccn([C@@H]2CS[C@H](CO)O2)c(=O)n1` [Compound 3TC, Lamivudine], for which the fold change under setting [1] was 2,5. For the same compound, the EC50 under setting [2] was 3490 nM.
On to `CC(C)Oc1ccc(Cc2ccccc2)cc1C(=O)CC(=O)C(=O)O` [Compound 4, 2-(1-methylethyloxy)-α,γ dioxo-5-(phenylmethyl)-benzenebutanoic acid], for which the fold change under setting [1] is 1,0. The EC50 under setting [2] is 280 nM.
For `O=c1[nH]cnc2c1ncn2[C@H]1CC[C@@H](CO)O1` [DDI, Didanosine], in that order: 2,2 and 10400 nM.
Taken in the same sequence, the figures for `CC(C)(C)NC(=O)[C@@H]1CN(Cc2cccnc2)CCN1C[C@@H](O)C[C@@H](Cc1ccccc1)C(=O)N[C@H]1c2ccccc2C[C@H]1O` [IDV, Indinavir] were 1,3 and 56.4 nM.
For `Cc1ccnc2c1NC(=O)c1cccnc1N2C1CC1` [NVP, Nevirapine], in that order: 1,7 and 151 nM.
Take `CC(C)c1nc(CN(C)C(=O)N[C@H](C(=O)N[C@@H](Cc2ccccc2)C[C@H](O)[C@H](Cc2ccccc2)NC(=O)OCc2cncs2)C(C)C)cs1` [RTV, ritonavir]: the fold change under setting [1] is reported as 1,3. Further, the EC50 under setting [2] came out at 192 nM.
As for `CC(C)(C)NC(=O)[C@@H]1C[C@@H]2CCCC[C@@H]2CN1C[C@@H](O)[C@H](Cc1ccccc1)NC(=O)[C@H](CC(N)=O)NC(=O)c1ccc2ccccc2n1` [SQV, Saquinavir], under setting [1], the fold change is listed as 1,7. For the same compound, under setting [2], the EC50 was determined as 34.5 nM.
